# US8008291B2 (Mimetica Pty Ltd, priority 2008, dated 2011)
# Biological target: T1, human MC5R (hMC5R) (Homo sapiens, UniProt P33032)
# T1 construct: purchased Perkin Elmer RBXMC5M400UA
# Assay: Human MC5R radioligand binding assay (membranes, [125I] NDP-MSH displacement)
# Settings: hMC5R binding; tested as trifluoroacetate or hydrochloride salts, or free bases; read-out: MC5R radioligand IC50
# In short: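 Frozen human MC5R membranes incubated with test compound and in-house iodogen-labeled, HPLC-purified [125I]NDP-MSH for 1 hr at 37° C. Binding measured as displacement of the radioligand.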
# T1 sequence (P33032 whole entry): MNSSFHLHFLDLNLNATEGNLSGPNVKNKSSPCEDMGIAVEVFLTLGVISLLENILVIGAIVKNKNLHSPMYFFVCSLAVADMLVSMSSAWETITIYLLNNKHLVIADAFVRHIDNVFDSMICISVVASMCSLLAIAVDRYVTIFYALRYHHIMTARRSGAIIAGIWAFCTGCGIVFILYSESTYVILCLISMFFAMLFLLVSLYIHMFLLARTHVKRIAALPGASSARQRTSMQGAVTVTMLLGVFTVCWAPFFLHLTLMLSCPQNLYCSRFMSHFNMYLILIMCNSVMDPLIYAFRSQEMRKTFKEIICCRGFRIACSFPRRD
row,SMILES,IC50 [nM]
1,"CCC(CC)CN1CC[C@@H](CNC(=O)/C=C/c2ccc(Cl)cc2)N[C@@H](CCN)C1=O [Compound 330, (E)-N-(((3S,5S)-3-(2-aminoethyl)-1-(2-ethylbutyl)-2-oxo-1,4-diazepan-5-yl)methyl)-3-(4-chlorophenyl)acrylamide]",< 1000
2,"CCC(CC)CN1CC[C@@H](CNC(=O)c2ccc3ccccc3c2)N[C@@H](CCN2CCCCC2)C1=O [Compound 333, N-(((3S,5S)-1-(2-ethylbutyl)-2-oxo-3-(2-(piperidin-1-yl)ethyl)-1,4-diazepan-5-yl)methyl)-2-naphthamide]",< 100
3,"O=C(NCC[C@@H]1CCN(CC(c2ccccc2)c2ccccc2)C(=O)[C@H](CCN2CCCC2)N1)c1ccc2ccccc2c1 [Compound 339, N-(2-((3S,5R)-1-(2,2-diphenylethyl)-2-oxo-3-(2-(pyrrolidin-1-yl)ethyl)-1,4-diazepan-5-yl)ethyl)-2-naphthamide]",< 1000
4,"NCCC[C@@H]1N[C@H](CNC(=O)c2ccc3ccccc3c2)CCN(Cc2cc(C(F)(F)F)cc(C(F)(F)F)c2)C1=O [Compound 340, N-(((3S,5S)-3-(3-aminopropyl)-1-(3,5-bis(trifluoromethyl)benzyl)-2-oxo-1,4-diazepan-5-yl)methyl)-2-naphthamide]",< 10000
5,"NCCC[C@@H]1N[C@H](CNC(=O)c2ccc3ccccc3c2)CCN(Cc2cccc(Cl)c2)C1=O [Compound 341, N-(((3S,5S)-3-(3-aminopropyl)-1-(3-chlorobenzyl)-2-oxo-1,4-diazepan-5-yl)methyl)-2-naphthamide]",< 10000
6,"CCC(CN1CC[C@@H](CNC(=O)c2ccc3ccccc3c2)N[C@@H](CCCN2CCCCC2)C1=O)c1ccccc1 (stereo partly drawn) [Compound 342, N-(((3S,5S)-2-oxo-1-(2-phenylbutyl)-3-(3-(piperidin-1-yl)propyl)-1,4-diazepan-5-yl)methyl)-2-naphthamide]",< 100
7,"N=C(N)NCCC[C@@H]1N[C@H](CNC(=O)c2ccc3ccccc3c2)CCN(CC(C(=O)N2CCCCC2)c2ccccc2)C1=O (stereo partly drawn) [Compound 343, N-(((3S,5S)-3-(3-guanidinopropyl)-2-oxo-1-(3-oxo-2-phenyl-3-(piperidin-1-yl)propyl)-1,4-diazepan-5-yl)methyl)-2-naphthamide]",< 10000
8,"N=C(N)NCCC[C@@H]1N[C@H](CNC(=O)c2ccc3ccccc3c2)CCN(CC(C(=O)Nc2ccccc2)c2ccccc2)C1=O (stereo partly drawn) [Compound 344, N-(((3S,5S)-3-(3-guanidinopropyl)-2-oxo-1-(3-oxo-2-phenyl-3-(phenylamino)propyl)-1,4-diazepan-5-yl)methyl)-2-naphthamide]",< 10000
9,"CCC(CN1CC[C@@H](CNC(=O)/C=C/c2ccc(Cl)cc2)N[C@@H](CCN)C1=O)c1ccccc1 (stereo partly drawn) [Compound 353, (E)-N-(((3S,5S)-3-(2-aminoethyl)-2-oxo-1-(2-phenylbutyl)-1,4-diazepan-5-yl)methyl)-3-(4-chlorophenyl)acrylamide]",< 100
10,"C[C@H](CN1CC[C@@H](CNC(=O)c2ccc3ccccc3c2)N[C@@H](CCCN)C1=O)c1ccccc1 [Compound 356, N-(((3S,5S)-3-(3-aminopropyl)-2-oxo-1-((S)-2-phenylpropyl)-1,4-diazepan-5-yl)methyl)-2-naphthamide]",< 1000
11,"C[C@@H](CN1CC[C@@H](CNC(=O)c2ccc3ccccc3c2)N[C@@H](CCCN)C1=O)c1ccccc1 [Compound 357, N-(((3S,5S)-3-(3-aminopropyl)-2-oxo-1-((R)-2-phenylpropyl)-1,4-diazepan-5-yl)methyl)-2-naphthamide]",< 10000
12,"CN(C)CC[C@@H]1N[C@H](CNC(=O)c2ccc3ccccc3c2)CCN(CC(c2ccccc2)c2ccccc2)C1=O [Compound 358, N-(((3S,5S)-3-(2-(dimethylamino)ethyl)-1-(2,2-diphenylethyl)-2-oxo-1,4-diazepan-5-yl)methyl)-2-naphthamide]",< 1000
13,"O=C(NC[C@@H]1CCN(CC(c2ccccc2)c2ccccc2)C(=O)[C@H](CCCN2CCCCC2)N1)c1ccc2cc(F)ccc2c1 [Compound 359, N-(((3S,5S)-1-(2,2-diphenylethyl)-2-oxo-3-(3-(piperidin-1-yl)propyl)-1,4-diazepan-5-yl)methyl)-6-fluoro-2-naphthamide]",< 100
14,"C#Cc1cc(C#C)cc(CN2CC[C@@H](CNC(=O)c3ccc4ccccc4c3)N[C@@H](CCCN)C2=O)c1 [Compound 360, N-(((3S,5S)-3-(3-aminopropyl)-1-(3,5-diethynylbenzyl)-2-oxo-1,4-diazepan-5-yl)methyl)-2-naphthamide]",< 1000
15,"CCN(CC)CC[C@@H]1N[C@H](CNC(=O)c2ccc3ccccc3c2)CCN(CC(c2ccccc2)c2ccccc2)C1=O [Compound 362, N-(((3S,5S)-3-(2-(diethylamino)ethyl)-1-(2,2-diphenylethyl)-2-oxo-1,4-diazepan-5-yl)methyl)-2-naphthamide]",< 100
16,"CC[C@@H](CN1CC[C@@H](CNC(=O)c2ccc(Cl)c(Cl)c2)N[C@@H](CCN2CCCCC2)C1=O)c1ccccc1 [Compound 363, 3,4-dichloro-N-(((3S,5S)-2-oxo-1-((R)-2-phenylbutyl)-3-(2-(piperidin-1-yl)ethyl)-1,4-diazepan-5-yl)methyl)benzamide]",< 100

row,SMILES,IC50 [nM]
1,"CC[C@@H](CN1CC[C@@H](CNC(=O)/C=C/c2ccc(Cl)cc2)N[C@@H](CCN2CCCCC2)C1=O)c1ccccc1 [Compound 364, (E)-3-(4-chlorophenyl)-N-(((3S,5S)-2-oxo-1-((R)-2-phenylbutyl)-3-(2-(piperidin-1-yl)ethyl)-1,4-diazepan-5-yl)methyl)acrylamide]",< 100
2,"CC[C@H](CN1CC[C@@H](CNC(=O)/C=C/c2ccc(Cl)cc2)N[C@@H](CCN2CCCCC2)C1=O)c1ccccc1 [Compound 365, (E)-3-(4-chlorophenyl)-N-(((3S,5S)-2-oxo-1-((S)-2-phenylbutyl)-3-(2-(piperidin-1-yl)ethyl)-1,4-diazepan-5-yl)methyl)acrylamide]",< 10
3,"NCC[C@@H]1N[C@H](CNC(=O)c2ccc3cc(Cl)ccc3c2)CCN(CC(c2ccccc2)c2ccccc2)C1=O [Compound 366, N-(((3S,5S)-3-(2-aminoethyl)-1-(2,2-diphenylethyl)-2-oxo-1,4-diazepan-5-yl)methyl)-6-chloro-2-naphthamide]",< 100
4,"O=C(NC[C@@H]1CCN(CC(c2ccccc2)c2ccccc2)C(=O)[C@H](CCN2CCCC2)N1)c1ccc2ccccc2c1 [Compound 367, N-(((3S,5S)-1-(2,2-diphenylethyl)-2-oxo-3-(2-(pyrrolidin-1-yl)ethyl)-1,4-diazepan-5-yl)methyl)-2-naphthamide]",< 100
5,"O=C(NC[C@@H]1CCN(CC(c2ccccc2)c2ccccc2)C(=O)[C@H](CCN2CCCCC2)N1)c1ccc2ccccc2c1 [Compound 368, N-(((3S,5S)-1-(2,2-diphenylethyl)-2-oxo-3-(2-(piperidin-1-yl)ethyl)-1,4-diazepan-5-yl)methyl)-2-naphthamide]",< 100
6,"CCC(CC)CN1CC[C@@H](CNC(=O)c2ccc3cc(F)ccc3c2)N[C@@H](CCN)C1=O [Compound 369, N-(((3S,5S)-3-(2-aminoethyl)-1-(2-ethylbutyl)-2-oxo-1,4-diazepan-5-yl)methyl)-6-fluoro-2-naphthamide]",< 1000
7,"CCC(CC)CN1CC[C@@H](CNC(=O)c2ccc3cc(Cl)ccc3c2)N[C@@H](CCN)C1=O [Compound 370, N-(((3S,5S)-3-(2-aminoethyl)-1-(2-ethylbutyl)-2-oxo-1,4-diazepan-5-yl)methyl)-6-chloro-2-naphthamide]",< 1000
8,"CCC(CC)CN1CC[C@@H](CNC(=O)c2ccc3cc(Br)ccc3c2)N[C@@H](CCN)C1=O [Compound 371, N-(((3S,5S)-3-(2-aminoethyl)-1-(2-ethylbutyl)-2-oxo-1,4-diazepan-5-yl)methyl)-6-bromo-2-naphthamide]",< 1000
9,"CCC(CC)CN1CC[C@@H](CNC(=O)c2ccc3cc(F)ccc3c2)N[C@@H](CCN2CCCCC2)C1=O [Compound 372, N-(((3S,5S)-1-(2-ethylbutyl)-2-oxo-3-(2-(piperidin-1-yl)ethyl)-1,4-diazepan-5-yl)methyl)-6-fluoro-2-naphthamide]",< 100
10,"CCC(CC)CN1CC[C@@H](CNC(=O)c2ccc3cc(Cl)ccc3c2)N[C@@H](CCN2CCCCC2)C1=O [Compound 373, 6-chloro-N-(((3S,5S)-1-(2-ethylbutyl)-2-oxo-3-(2-(piperidin-1-yl)ethyl)-1,4-diazepan-5-yl)methyl)-2-naphthamide]",< 100
11,"CCC(CC)CN1CC[C@@H](CNC(=O)c2ccc3cc(Br)ccc3c2)N[C@@H](CCN2CCCCC2)C1=O [Compound 374, 6-bromo-N-(((3S,5S)-1-(2-ethylbutyl)-2-oxo-3-(2-(piperidin-1-yl)ethyl)-1,4-diazepan-5-yl)methyl)-2-naphthamide]",< 100
12,"CC1CC(C)CC(CN2CC[C@@H](CNC(=O)c3ccc(Cl)c(Cl)c3)N[C@@H](CCN)C2=O)C1 (stereo partly drawn) [Compound 375, N-(((3S,5S)-3-(2-aminoethyl)-1-((3,5-dimethylcyclohexyl)methyl)-2-oxo-1,4-diazepan-5-yl)methyl)-3,4-dichlorobenzamide]",< 1000
13,"CC1CC(C)CC(CN2CC[C@@H](CNC(=O)c3ccc4ccccc4c3)N[C@@H](CCN)C2=O)C1 (stereo partly drawn) [Compound 376, N-(((3S,5S)-3-(2-aminoethyl)-1-((3,5-dimethylcyclohexyl)methyl)-2-oxo-1,4-diazepan-5-yl)methyl)-2-naphthamide]",< 1000
14,"CC1CC(C)CC(CN2CC[C@@H](CNC(=O)/C=C/c3ccc(Cl)cc3)N[C@@H](CCN)C2=O)C1 (stereo partly drawn) [Compound 377, (E)-N-(((3S,5S)-3-(2-aminoethyl)-1-((3,5-dimethylcyclohexyl)methyl)-2-oxo-1,4-diazepan-5-yl)methyl)-3-(4-chlorophenyl)acrylamide]",< 1000
15,"O=C(NC[C@@H]1CCN(CC(c2ccccc2)c2ccccc2)C(=O)[C@H](CCN2CCCCC2)N1)c1ccc2cc(Cl)ccc2c1 [Compound 378, 6-chloro-N-(((3S,5S)-1-(2,2-diphenylethyl)-2-oxo-3-(2-(piperidin-1-yl)ethyl)-1,4-diazepan-5-yl)methyl)-2-naphthamide]",< 10
